Data set [1] is described as follows: Plasma/blood exposure after administration of compressed tablets to the duodenum of dogs. To be noted: tablet, 1 mg/kg drug, 10 mg/kg palmitoyl carnitine chloride, four hours. The data set is classed as in vivo, dog. On the procedure: Compressed tablets were prepared with and without 112 mg β-cyclodextrin (7.5 mg/kg), containing 15 mg of [R-(R*,R*)]-3-[(2-hydroxypropyl)amino]-3-methyl-N-[2,3,4,5-tetrahydro-2-oxo-1[[2'-(H-tetrazol-5-yl)[1,1'-biphenyl]-4-yl]methyl]-1H-1-benzazepin-3-yl]butanamide (1 mg/kg) and 150 mg palmitoyl carnitine chloride (10 mg/kg) in a tablet matrix containing 203 mg microcrystalline cellulose, 100 mg lactose, 20 mg corn starch and 2 mg magnesium stearate. The tablets were administered to the duodenum of dogs through a surgically prepared fistual. Serial blood samples were taken from the dogs for four hours after dosing and analyzed for [R-(R*,R*)]-3-[(2-hydroxypropyl)amino]-3-methyl-N -[2,3,4,5-tetra-hydro-2-oxo-1-[[2'-(H-tetrazol-5-yl)[1,1'-biphenyl]-4-yl]methyl]-1H-1-benzazepin-3-yl]butanamide. The results given as resulting area under [R-(R*,R*)]-3-[(2-hydroxy-propyl)amino] -3-methyl-N-[2,3,4,5-tetrahydro-2-oxo- 1-[[2'-(H-tetrazol-5-yl)[1,1'-biphenyl]-4-yl]methyl]-1H-1-benzazepin-3-yl]butanamide concentration-time curve ± standard deviations, are 361±168 ng min/ml in the absence of β-cyclodextrin and […] in the presence of β-cyclodextrin.

The nature of data set [2]: Jejunal absorption of drug solutions from ligated sections of the jejunum of anesthetized rats (bile collection). Conditions: rat, pH 7.4, solution 2 mg/ml drug, read-out: % of Dose Absorbed Relative to IV (+/- s.d.). The data set is classed as in vivo. As for the experimental part:
(§1) Solutions of palmitoyl carnitine, β-cyclodextrin and an [R-(R*,R*)]-3-[(2-hydroxypropyl)amino]-3-methyl-N-[2,3,4,5-tetrahydro-2-oxo-1-[[2'-(H-tetrazol-5-yl)[1,1'-biphenyl]-4-yl]methyl]-1H-1-benzazepin-3-yl]butanamide having the following structure: [drawing 1] hereinafter referred to as [R-(R*,R*)]-3-[(2-hydroxypropyl)amino]-3-methyl-N-[2,3,4,5-tetrahydro-2-oxo-1-[[2'-(H-tetrazol-5-yl)[1,1'-biphenyl]-4-yl]methyl]-1H-1-benzazepin-3-yl]butanamide were prepared such that [R-(R*,R*)]-3-[(2-hydroxypropyl)amino]-3-methyl-N-[2,3,4,5-tetrahydro-2-oxo-1-[[2'-(H-tetrazol-5-yl)[1,1'-biphenyl]-4-yl]methyl]-1H-1-benzazepin-3-yl]butanamide was maintained at 2 mg/ml. All solutions were prepared in Krebs-Henseleit buffer at Ph 7.4. The solutions were administered to ligated sections of the jejunum of anesthetized rats. […] The bile was collected in 15 minute intervals for 3.5 hours and analyzed for [R-(R*,R*)]-3-[(2-hydroxypropyl)amino]-3-methyl-N-[2,3,4,5-tetrahydro-2-oxo-1-[[2'-(H-tetrazol-5-yl)[1,1'-biphenyl]-4-yl]methyl]-1H-1-benzazepin-3-yl]butanamide content. From the bile volume, the total amount of drug eliminated could be calculated. After an IV dose, 92% of the drug is found in the bile. Therefore all value were divided by 0.92 to give true absorption values. These values are given in table 1, along with standard deviations which were observed.

Data set [3] is described as follows: Absorption of solid formulations (powders, tablets, beads) from unligated sections of the jejunum of anesthetized rats (bile collection). The data set is classed as in vivo. To be noted: rat. As for the experimental part:
as §1
Powders were prepared so as to contain in each dose, 2 mg/kg of [R-(R*,R*)]-3-[(2-hydroxypropyl)amino]-3-methyl-N-[2,3,4,5-tetrahydro-2-oxo-1-[[2'-(H-tetrazol-5-yl)[1,1'-biphenyl]-4-yl]methyl]-1H-1-benzazepin-3-yl]butanamide, 0-10 mg/kg palmitoyl carnitine chloride, 0-15 mg/kg β-cyclodextrin and microcrystalline cellulose. The powders were administered to unligated sections of the jujunum of anesthetized rats. Bile was collected and the absorption of [R-(R*,R*)]-3-[(2-hydroxypropyl)amino]-3-methyl-N-[2,3,4,5-tetrahydro-2-oxo-1-[[2'-(H-tetrazol-5-yl)[1,1'-biphenyl]-4-yl]methyl]-1H-1-benzazepin-3-yl]butanamide was determined as in Example 1. The results of these studies are provided in Table 2, along with observed standard deviations.
Lyophilized preparations of [R-(R*,R*)]-3-[(2-hydroxypropyl)amino]-3-methyl-N-[2,3,4,5-tetrahydro-2-oxo-1-[[2'-(H-tetrazol-5-yl)[1,1'-biphenyl]-4-yl]methyl]-1H-1-benzazepin-3-yl]butanamide were prepared from solutions containing 2 mg/ml of [R-(R*,R*)]-3-[(2-hydroxypropyl)amino]-3-methyl-N-[2,3,4,5-tetrahydro-2-oxo-1-[[2'-(H-tetrazol-5-yl)[1,1'-biphenyl]-4-yl]methyl]-1H-1-benzazepin-3-yl]butanamide and 15 mg/ml of β-cyclodextrin or 20 mg/ml hydroxypropyl-β-cyclodextrin. The lyophilized preparations were mixed with palmitoyl carnitine chloride and microcrystalline cellulose and compressed into tablets. The tablets contained 2 mg/kg of [R-(R*,R*)]-3-[(2-hydroxypropyl)amino]-3 -methyl -N-[2,3,4,5,-tetrahydro-2-oxo-1-[[2'-(H-tetrazol-5-yl)[1,1'biphenyl]-4-yl]methyl-1H1-benzazepin-3-yl]butanamide and 10 mg/kg palmitoyl carnitine chloride. The tablets were administered to the unligated sections of the jejunum of anesthetized rats. Bile was collected and the absorption of [R-(R*,R*)]-3-[(2-hydroxypropyl) amino]-3 -methyl -N- [2,3,4,5 -tetrahydro-2-oxo-1-[[2'-(H-tetrazol-5-yl)[1,1'-biphenyl]-4-yl]methyl]-1H- 1-benzazepin-3-yl]butanamide determined as in Example 1. The percentage absorption of [R-(R*,R*)]-3-[(2-hydroxypropyl)amino]-3-methyl-N-[2,3,4,5-tetrahydro-2-oxo-1-[[2'-(H-tetrazol-5-yl)[1,1'-biphenyl]-4-yl]methyl]-1H-1-benzazepin-3-yl]butanamide from the lyophilized formulation containing β-cyclodextrinwas 28.2±18.3 and from the hydroxpropyl-β-cyclodextrin, 7.5±6.2.
Fifteen parts of water were added to a mixture of [R-(R*,R*)]-3-[(2-hydroxypropyl)amino]-3-methyl-N-[2,3,4,5-tetrahydro-2-oxo-1-[[2'-(H-tetrazol-5-yl)[1,1'-biphenyl]-4-methyl]-1H-1-benzazepin-3-yl]butanamide, β-cyclodextrin, palmitoyl carnitine chloride, micro-crystalline cellulose and starct (2:15:10:15:10). The preparation was extruded through a screen ([…]) and spheronized. […]

A short description of data set [4]: Biliary excretion in rats. The data set is classed as in vivo, rat. As for the experimental part:
as §1

Each structure is given as a SMILES string. Like-named read-outs stand apart in the source and are kept apart here.

As for `C[C@@H](O)CNC(C)(C)CC(=O)N[C@@H]1CCc2ccccc2N(Cc2ccc(-c3ccccc3-c3nnn[nH]3)cc2)C1=O` [[R-(R*,R*)]-3-[(2-hydroxypropyl)amino]-3-methyl-N-[2,3,4,5-tetrahydro-2-oxo-1-[[2'-(H-tetrazol-5-yl)[1,1'-biphenyl]-4-yl]methyl]-1H-1-benzazepin-3-yl]butanamide], the AUC at 4 h in data set [1] (dog, blood, absence of β-cyclodextrin, read-out: area under concentration-time curve ± standard deviations (converted)) was 6.02 ng·h/mL. Also, in data set [1] (presence of β-cyclodextrin (7.5 mg/kg)), the area under concentration-time curve ± standard deviations was 19.8 ± 8.18 ng·h/mL. Besides, the Fa at 3.5 h turned out to be 4.98 ± 5.67% in data set [2] (palmitoyl carnitine chloride 0 mg/kg, β-cyclodextrin 0 mg/kg); 3.1 ± 1.59% in data set [2] (palmitoyl carnitine chloride 0 mg/kg, β-cyclodextrin 7.5 mg/kg); 12 ± 7.23% in data set [2] (palmitoyl carnitine chloride 0 mg/kg, β-cyclodextrin 15 mg/kg); 11.9 ± 2.6% in data set [2] (palmitoyl carnitine chloride 5 mg/kg, β-cyclodextrin 0 mg/kg); 14 ± 5.4% in data set [2] (palmitoyl carnitine chloride 5 mg/kg, β-cyclodextrin 7.5 mg/kg); 20.4 ± 15.2% in data set [2] (palmitoyl carnitine chloride 5 mg/kg, β-cyclodextrin 15 mg/kg). The Fa at 3.5 h in data set [2] (palmitoyl carnitine chloride 10 mg/kg, β-cyclodextrin 0 mg/kg) was found to be 22.6 ± 13.5%; in data set [2] (palmitoyl carnitine chloride 10 mg/kg, β-cyclodextrin 7.5 mg/kg) it was 29.6 ± 8.2%; in data set [2] (palmitoyl carnitine chloride 10 mg/kg, β-cyclodextrin 15 mg/kg), 49.3 ± 13.4%. Moreover, the Fa came to 0.18 ± 0.26% in data set [3] (2 mg/kg, powder, 2 mg/kg drug, palmitoyl carnitine chloride 0 mg/kg, β-cyclodextrin 0 mg/kg, read-out: absorption determined as in Example 1 (± standard deviation)); 3.3 ± 1.9% in data set [3] (2 mg/kg, powder, 2 mg/kg drug, palmitoyl carnitine chloride 10 mg/kg, β-cyclodextrin 0 mg/kg, read-out: absorption determined as in Example 1 (± standard deviation)); 8.9 ± 7.6% in data set [3] (2 mg/kg, powder, 2 mg/kg drug, palmitoyl carnitine chloride 10 mg/kg, β-cyclodextrin 7.5 mg/kg, read-out: absorption determined as in Example 1 (± standard deviation)); 14.8 ± 9.8% in data set [3] (2 mg/kg, powder, 2 mg/kg drug, palmitoyl carnitine chloride 10 mg/kg, β-cyclodextrin 15 mg/kg, read-out: absorption determined as in Example 1 (± standard deviation)); 28.2 ± 18.3% in data set [3] (2 mg/kg, tablet of lyophilized formulation containing β-cyclodextrin (15 mg/ml in solution), 2 mg/kg drug, 10 mg/kg palmitoyl carnitine chloride, read-out: percentage absorption); 8.8% in data set [3] (spheronized beads, drug:β-cyclodextrin:palmitoyl carnitine chloride:microcrystalline cellulose:starch 2:15:10:15:10, read-out: absorption). Besides, in data set [3] (tablet of lyophilized formulation containing hydroxypropyl-β-cyclodextrin (20 mg/ml in solution), 2 mg/kg drug, 10 mg/kg palmitoyl carnitine chloride, read-out: percentage absorption), the Fa was determined as 7.5 ± 6.2%. Also, the route of excretion entry in data set [4] is recorded as “excreted almost exclusively unchanged in the bile”. For the same molecule, in data set [4] (rat, bile, after an IV dose, read-out: drug found in the bile), the dose excreted was 92%.

The values above are taken from patent US5525596A, “Absorption enhancer/solubilizer combination for improved bioavailability of a zwitterionic compound” (Merck & Co., Inc., priority 1994, dated 1996).
